3 compounds from article PMC11938014, “Development and Application of Small Molecule–Peptide Conjugates as Cathepsin K-Specific Covalent Irreversible Inhibitors in Human Osteoclast and Lung Cancer” (JACS Au, 2025) can be followed below.

One assay deals with human osteoclasts. Briefly: Bone resorption assay, pit formation on bone slices (toluidine blue). Format: cell-based. To be noted: Osteoclast, compared to vehicle-treated OC. Here is the method: The selective blockage of cellular CTSK activity allowed us to assess the effect of the inhibitors on bone resorption induced by osteoclasts (OCs) as an important step toward therapeutic application in osteoporosis, bone metastases, and other diseases associated with excessive bone resorption. Human OCs were derived from CD14+ monocytes that were extracted from healthy donors’ blood and treated with M-CSF and RANKL, as described in Abdallah et al.[46] The OC were grown on cortical bone slices over 14 days in the presence of the CTSK inhibitors to evaluate the impact of inhibitors on bone resorption; see scheme (Figure 6a).
Figure 6 CTSK inhibition in human osteoclasts. (a) Scheme of the process of maturation of osteoclasts (OCs) derived from human monocytes in the presence of RANKL and M-CSF. […] (c) Quantitative analysis of pit formation in bone slices after incubation with OC treated with GD20 or ODN (1, 5 μM) relative to vehicle treated slices. […] (e) Quantification of osteoclasts number on bone slices after inhibitor treatment, detected by TRAP staining. […] The activity of CTSK in the cells was detected by 2 h labeling with a pan-cathepsin activity-based probe, GB123, followed by a fluorescence scan of the SDS-PAGE detecting CTSK attached to the probe; the red arrow points to the bands of CTSK (above 25 kDa). […]

Assay [1] concerns the target T1, CTSK in U2-OS and U-87 MG cells (Homo sapiens, UniProt P43235).
T1 construct: endogenous in cells; host or cells: U2-OS and U-87 MG
T1 sequence (P43235 115-329): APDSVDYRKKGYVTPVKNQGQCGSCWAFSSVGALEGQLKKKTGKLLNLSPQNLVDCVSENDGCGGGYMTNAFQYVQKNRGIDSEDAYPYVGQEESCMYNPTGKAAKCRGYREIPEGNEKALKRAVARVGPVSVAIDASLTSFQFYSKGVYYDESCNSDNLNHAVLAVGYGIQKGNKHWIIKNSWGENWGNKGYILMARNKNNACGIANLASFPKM
Briefly: Fluorescence microscopy of CTSK inhibition in cell lines (GD32 probe). It counts as cell-based. To be noted: 3 μM, 2 h. Here is the method: We next corroborated CTSK-specific inhibition by fluorescence microscopy studies of OC. Human OC were grown on 8-well plates; the intact cells were treated with either of the CTSK inhibitors or with the vehicle and then with the CTSK-specific fluorescent ABP GD32.[19] The fluorescence microscopy pictures were acquired following cell fixation, which permitted imaging and evaluating CTSK activity and inhibition in cells. […] As the inhibitors are specific to CTSK, they could not block the fluorescence signals of GB123 associated with other cathepsins (B, L, S) (Figure 8b).
Figure 8 Detection of inhibition of endogenous cathepsin K in intact cells by fluorescence microscopy. Enriched human monocytes from peripheral blood mononuclear cells (PBMC) were isolated from healthy donors’ blood and were treated for 14 days with M-CSF and RANKL or M-CSF alone, as indicated. Osteoclast cells were treated with vehicle (DMSO) or indicated inhibitors [3 μM] in a culture medium for 2 h, followed by incubation with (a) GD32 (a specific CTSK ABP) for 8 h or (b) GB123 for 2 h. Similar to those described in panel (a), cultures of U2-OS cells (c) and U-87 MG cells (d) were grown in 8-well chambers. Cells were pretreated with either the DMSO or [3 μM] of indicated specific CTSK inhibitors for 2 h and then labeled by the addition of 1.25 μM GD32 to the culture medium for 24 h (U2-OS) or 2 h (U-87 MG). […]

As to `CC(C)C[C@H](N[C@@H](c1ccc(-c2ccc(S(C)(=O)=O)cc2)cc1)C(F)(F)F)C(=O)NCC(=O)COC(=O)[C@@H]1CCCN1C(=O)[C@H](CC(C)C)NC(=O)OCC1c2ccccc2-c2ccccc21` [GD20], the inhibition at 5 µM in the assay with human osteoclasts stood at 94 ± 1.57%. In addition, the “CTSK activity labeled by GD32 probe” value in assay [1] is listed as “block CTSK activity”. For the compound `CC(C)C[C@H](N[C@@H](c1ccc(-c2ccc(S(C)(=O)=O)cc2)cc1)C(F)(F)F)C(=O)NCC(=O)COC(=O)[C@@H]1CCCN1C(=O)[C@H](CCC(N)=O)NC(=O)OCC1c2ccccc2-c2ccccc21` [GD38], in assay [1], the “CTSK activity labeled by GD32 probe” value was “block CTSK activity”.

Take `CC(C)(F)C[C@H](N[C@@H](c1ccc(-c2ccc(S(C)(=O)=O)cc2)cc1)C(F)(F)F)C(=O)NC1(C#N)CC1` [ODN, odanacatib, reference compound]: in the assay on human osteoclasts, testing at 5 µM gave an inhibition of 93 ± 1.45%.
